“And” between values parts separate entries of the source, which are not always exact repeats. Equal values may be shown once.
O=C(C(F)(F)C(F)(F)F)C(F)(C(F)(F)F)C(F)(F)F [dodecafluoro-2-methylpentan-3-one]
Conditions | thermal conductivity
432.7 K, 49519 kPa, Liquid, transient hot wire | 0.06451 W/m/K
432.71 K, 656 kPa, Gas, hot wire | 0.02379 W/m/K
432.72 K, 1422 kPa, Gas, transient hot wire | 0.02498 W/m/K
432.72 K, 49517 kPa, Liquid, transient hot wire | 0.06454 W/m/K
432.77 K, 1418 kPa, Gas, transient hot wire | 0.02496 W/m/K
432.77 K, 1419 kPa, Gas, transient hot wire | 0.02504 W/m/K
432.79 K, 1709 kPa, Liquid, transient hot wire | 0.03809 W/m/K
432.79 K, 34245 kPa, Liquid, transient hot wire | 0.05883 W/m/K
432.8 K, 1709 kPa, Liquid, transient hot wire | 0.03764 W/m/K
432.8 K, 1977 kPa, Liquid, transient hot wire | 0.03806 W/m/K
432.81 K, 652 kPa, Gas, hot wire | 0.02381 W/m/K
432.81 K, 655 kPa, Gas, hot wire | 0.02367 W/m/K
432.81 K, 1704 kPa, Liquid, transient hot wire | 0.03807 W/m/K
432.81 K, 1706 kPa, Liquid, transient hot wire | 0.03761 W/m/K
432.81 K, 1977 kPa, Liquid, transient hot wire | 0.03794 W/m/K
432.81 K, 22767 kPa, Liquid, transient hot wire | 0.05368 W/m/K
432.82 K, 375 kPa, Gas, hot wire | 0.02254 W/m/K
432.83 K, 376 kPa, Gas, hot wire | 0.02257 W/m/K
432.83 K, 22777 kPa, Liquid, transient hot wire | 0.05369 W/m/K
432.84 K, 2631 kPa, Liquid, transient hot wire | 0.03896 W/m/K
432.84 K, 49496 kPa, Liquid, transient hot wire | 0.06439 W/m/K
432.84 K, 49505 kPa, Liquid, transient hot wire | 0.06438 W/m/K
432.86 K, 2631 kPa, Liquid, transient hot wire | 0.03897 W/m/K
432.87 K, 158 kPa, Gas, hot wire | 0.02102 W/m/K
432.87 K, 159 kPa, Gas, hot wire | 0.02111 W/m/K
432.87 K, 3941 kPa, Liquid, transient hot wire | 0.04063 W/m/K
432.88 K, 1297 kPa, Gas, transient hot wire | 0.02344 W/m/K
432.88 K, 1298 kPa, Gas, transient hot wire | 0.02358 W/m/K
432.88 K, 1418 kPa, Gas, transient hot wire | 0.02521 W/m/K
432.9 K, 43 kPa, Gas, hot wire | 0.02081 W/m/K
432.9 K, 650 kPa, Gas, hot wire | 0.02367 W/m/K
432.91 K, 42 kPa, Gas, hot wire | 0.02089 W/m/K
432.93 K, 374 kPa, Gas, hot wire | 0.02268 W/m/K
432.93 K, 375 kPa, Gas, hot wire | 0.02269 W/m/K
432.93 K, 1976 kPa, Liquid, transient hot wire | 0.03821 W/m/K
432.93 K, 34232 kPa, Liquid, transient hot wire | 0.05866 W/m/K
432.93 K, 34243 kPa, Liquid, transient hot wire | 0.05865 W/m/K
432.94 K, 1977 kPa, Liquid, transient hot wire | 0.03807 W/m/K
432.95 K, 1709 kPa, Liquid, transient hot wire | 0.03814 W/m/K
432.98 K, 22754 kPa, Liquid, transient hot wire | 0.05357 W/m/K
432.98 K, 49470 kPa, Liquid, transient hot wire | 0.06431 W/m/K
432.99 K, 157 kPa, Gas, hot wire | 0.02107 W/m/K and 0.02099 W/m/K
432.99 K, 1298 kPa, Gas, transient hot wire | 0.02366 W/m/K
433 K, 1299 kPa, Gas, transient hot wire | 0.02363 W/m/K
433 K, 6150 kPa, Liquid, transient hot wire | 0.04309 W/m/K
433 K, 15091 kPa, Liquid, transient hot wire | 0.04962 W/m/K
433 K, 15095 kPa, Liquid, transient hot wire | 0.04957 W/m/K
433.01 K, 43 kPa, Gas, hot wire | 0.02102 W/m/K and 0.02104 W/m/K
433.02 K, 647 kPa, Gas, hot wire | 0.02339 W/m/K
433.02 K, 648 kPa, Gas, hot wire | 0.02337 W/m/K
433.02 K, 6152 kPa, Liquid, transient hot wire | 0.04303 W/m/K
433.03 K, 3941 kPa, Liquid, transient hot wire | 0.04082 W/m/K
433.04 K, 373 kPa, Gas, hot wire | 0.02274 W/m/K
433.04 K, 2629 kPa, Liquid, transient hot wire | 0.03906 W/m/K
433.04 K, 2631 kPa, Liquid, transient hot wire | 0.03946 W/m/K
433.05 K, 372 kPa, Gas, hot wire | 0.02268 W/m/K
433.05 K, 3942 kPa, Liquid, transient hot wire | 0.04075 W/m/K
433.08 K, 34226 kPa, Liquid, transient hot wire | 0.05871 W/m/K
433.08 K, 34233 kPa, Liquid, transient hot wire | 0.05874 W/m/K
433.11 K, 155 kPa, Gas, hot wire | 0.02111 W/m/K
433.12 K, 156 kPa, Gas, hot wire | 0.02101 W/m/K
433.12 K, 646 kPa, Gas, hot wire | 0.02323 W/m/K
433.12 K, 9670 kPa, Liquid, transient hot wire | 0.04595 W/m/K
433.12 K, 9671 kPa, Liquid, transient hot wire | 0.04584 W/m/K
433.12 K, 49466 kPa, Liquid, transient hot wire | 0.06434 W/m/K
433.13 K, 43 kPa, Gas, hot wire | 0.02102 W/m/K
433.13 K, 644 kPa, Gas, hot wire | 0.02306 W/m/K
433.13 K, 22732 kPa, Liquid, transient hot wire | 0.05371 W/m/K
433.13 K, 22752 kPa, Liquid, transient hot wire | 0.05367 W/m/K
433.13 K, 49459 kPa, Liquid, transient hot wire | 0.06442 W/m/K
433.14 K, 43 kPa, Gas, hot wire | 0.02099 W/m/K
433.14 K, 1300 kPa, Gas, transient hot wire | 0.02391 W/m/K
433.16 K, 372 kPa, Gas, hot wire | 0.02272 W/m/K and 0.02276 W/m/K
433.16 K, 15084 kPa, Liquid, transient hot wire | 0.04944 W/m/K
433.19 K, 6155 kPa, Liquid, transient hot wire | 0.04297 W/m/K
433.19 K, 6159 kPa, Liquid, transient hot wire | 0.04336 W/m/K
433.19 K, 15094 kPa, Liquid, transient hot wire | 0.04947 W/m/K
433.21 K, 1138 kPa, Gas, transient hot wire | 0.02265 W/m/K and 0.02278 W/m/K
433.24 K, 155 kPa, Gas, hot wire | 0.02111 W/m/K
433.24 K, 1299 kPa, Gas, transient hot wire | 0.02422 W/m/K
433.24 K, 3943 kPa, Liquid, transient hot wire | 0.04078 W/m/K
433.24 K, 3944 kPa, Liquid, transient hot wire | 0.04039 W/m/K
433.24 K, 34207 kPa, Liquid, transient hot wire | 0.05868 W/m/K
433.24 K, 34211 kPa, Liquid, transient hot wire | 0.05857 W/m/K

Source: the NIST ThermoML archive (doi:10.1021/acs.jced.8b00132)
